Tests used:
[1] = Human insulin level in mouse serum (ELISA); assay type: in vivo; details: HGM mice, insulin by osmotic pump 58.4 pmol/min/kg for 4 weeks, alone or with K8 polypeptide or K9-C-peptide, 10 weeks after streptozotocin, mean ± SD, n = 6
Protocol: (§1) One day after implantation of the osmotic pumps, human C-peptide was systemically supplemented by subcutaneous implantation of K9-C-peptide depots as previously described. […] The K9-C-peptide and K8 polypeptide were prepared by inverse transition cycling as previously described. Four weeks after the subcutaneous injections, sera and retinal, lung, and kidney tissues were obtained from the mice and analyzed. All animal experiments conformed to the Guide for the Care and Use of Laboratory Animals (National Institutes of Health; Bethesda, MD, USA) and were approved by the Institutional Animal Care and Use Ethics Committee of Kangwon National University (KW-201204–3).

[2] = Human C-peptide level in mouse serum (ELISA); assay type: in vivo; details: HGM mice (STZ diabetic, insulin by osmotic pump 4 weeks), 4 weeks after s.c. K9-C-peptide 100 mg/kg or K8 polypeptide 83 mg/kg, injected twice, mean ± SD, n = 6
Protocol: as §1

[3] = tested on: insulin-supplemented diabetic (HGM) mice; test: Body weight, blood glucose, water and food consumption of HGM mice; assay type: in vivo, mouse; details: 4 weeks of treatment, insulin vs diabetic, K9-C-peptide/K8 on top of insulin, n = 6
Protocol: Six-week-old male C57BL/6 mice were obtained from DBL (EumSeong, Korea). […] Soo-Yul Kim (National Cancer Center, Goyang, Republic of Korea). Mice were maintained under pathogen-free conditions in a temperature-controlled room with a 12-h light/dark cycle. Diabetic mice were generated by single daily intraperitoneal injections of streptozotocin (50 mg/kg body weight; MilliporeSigma, Burlington, MA, USA) freshly prepared in 100 mM citrate buffer (pH 4.5) for 5 consecutive days, as previously described. The control group mice were injected with an equal volume of the citrate buffer. Mice with fasting blood glucose concentrations ≥ 19 mmol/L, polyuria, and glucosuria were considered diabetic. Mouse blood glucose levels and body weights were monitored weekly. […] One day after implantation of the osmotic pumps, human C-peptide was systemically supplemented by subcutaneous implantation of K9-C-peptide depots as previously described. […] The K9-C-peptide and K8 polypeptide were prepared by inverse transition cycling as previously described. Four weeks after the subcutaneous injections, sera and retinal, lung, and kidney tissues were obtained from the mice and analyzed. All animal experiments conformed to the Guide for the Care and Use of Laboratory Animals (National Institutes of Health; Bethesda, MD, USA) and were approved by the Institutional Animal Care and Use Ethics Committee of Kangwon National University (KW-201204–3).

[4] = tested on: human retinal endothelial cells (HRECs); test: Intracellular ROS levels in endothelial cells under HGM conditions; assay type: cell-based; details: 30 mM glucose 3 days then 5.5 mM 3 days; 1 nM K9-C-peptide or K8 polypeptide, 0.5 µM Trolox, 50 µM cystamine, 1 nM human C-peptide; CellROX green and H2DCFDA, n = 4
Protocol: (§2) HRECs were purchased from the Applied Cell Biology Research Institute (Cell Systems, Kirkland, WA) and grown on 2% gelatin-coated plates in M199 medium supplemented with 20% FBS, 3 ng/mL basic fibroblast growth factor, 100 U/mL penicillin, and […] streptomycin in a humidified 5% CO2 incubator. Cells were authenticated by short tandem repeat profiling, and subconfluent cells after 7–9 passages were used in experiments. For the experiments, endothelial cells were incubated for 12 h in a low-serum medium supplemented with 2% fetal bovine serum, 0.1 ng/mL basic fibroblast growth factor, and antibiotics. The cells were then treated with 5.5 mM D-glucose for 6 days (normal glucose), 30 mM glucose for 6 days (high glucose), or 30 mM glucose for 3 days followed by 5.5 mM glucose for 3 days (HGM).
Intracellular ROS levels were measured in HRECs using CellROX™ green reagent and 2′,7′-dichlorodihydrofluorescein diacetate (Thermo Fisher Scientific, Waltham, MA, USA) as previously described. Labeled cells on coverslips were mounted in a perfusion chamber and analyzed by confocal microscopy (K1-Fluo). ROS levels were determined at the single-cell level for 30 randomly selected cells in three microscopic fields per experiment (n = 4).

TGase = test: In situ TGase activity in endothelial cells under HGM conditions; assay type: cell-based; details: 30 mM glucose 3 days then 5.5 mM 3 days, 1 nM K9-C-peptide or K8 polypeptide, 0.5 µM Trolox, 50 µM cystamine, 1 nM human C-peptide, confocal, n = 4
Protocol: as §2
In situ TGase transamidating activity was measured by confocal microscopic assay as previously described. Briefly, HRECs were treated with 1 mmol/L 5-(biotinamido)pentylamine for 1 h and fixed with 3.7% formaldehyde for 30 min. The cells were then permeabilized with 0.2% Triton X-100 in PBS for 30 min and stained with FITC-conjugated streptavidin (1:200; MilliporeSigma, Burlington, MA, USA) for 1 h. The fluorescence intensities of single stained cells were determined by confocal microscopy (K1-Fluo) for 30 randomly selected cells in three microscopic fields per experiment (n = 4).

[5] = tested on: type 1 and type 2 diabetic mice; details: cited from earlier work
Text: The coincidence of diabetic complications, including DR, DPN, and DKD, has been reported in a number of clinical studies. Among the potential microvascular complications of diabetes, the coincidence of DR and DKD was reported to be high in epidemiological studies of both type 1 and type 2 diabetes. Co-occurrence of microvascular complications has also been observed in diabetic animal models including diabetic mice and rats. Moreover, increased mortality was reported in patients with both DR and systemic vascular diseases, including DKD [[ ...

[6] = cited from earlier work
Protocol: However, C-peptide is limited in clinical applications by its short circulating half-life (approximately 30 min) and costly chemical synthesis. Recently, we prepared K9-C-peptide, a recombinant human C-peptide conjugated to ELP, to facilitate long-term systemic delivery of C-peptide. ELPs, derived from human elasti ...

insulin: human recombinant insulin delivered by subcutaneous osmotic pump (HGM group)
Serum human insulin [1]: in the physiological range
Serum C-peptide [2]: not detectable
Effect on blood glucose level (hyperglycemia) [3]: normalized
Effect on body weight [3]: normalized
Effect on water and food consumption [3]: normalized

Cc1c(C)c2c(c(C)c1O)CCC(C)(C(=O)O)O2 (stereo not drawn) [Trolox]
HGM-induced persistent ROS generation in HRECs [4]: inhibited
HGM-induced persistent TGase activation in HRECs (TGase): inhibited

CN(C)c1ccc(O)c2c1C[C@H]1C[C@H]3[C@H](N(C)C)C(O)=C(C(N)=O)C(=O)[C@@]3(O)C(O)=C1C2=O [minocycline]
Effect on DR and DKD ([5]; DR in type 1 and DKD in type 2 diabetic mice, respectively): partially ameliorated
Effect on DPN ([5]; type 1 and type 2 diabetic mice (either animal model)): failed to improve

CC(C)C[C@H](NC(=O)[C@H](C)NC(=O)[C@H](CC(C)C)NC(=O)[C@@H]1CCCN1C(=O)[C@H](CCC(N)=O)NC(=O)[C@H](CC(C)C)NC(=O)[C@H](CO)NC(=O)CNC(=O)[C@H](C)NC(=O)CNC(=O)[C@@H]1CCCN1C(=O)CNC(=O)CNC(=O)CNC(=O)[C@H](CC(C)C)NC(=O)[C@H](CCC(=O)O)NC(=O)[C@@H](NC(=O)[C@H](CCC(N)=O)NC(=O)CNC(=O)[C@@H](NC(=O)[C@H](CCC(N)=O)NC(=O)[C@H](CC(C)C)NC(=O)[C@H](CC(=O)O)NC(=O)[C@H](CCC(=O)O)NC(=O)[C@H](C)NC(=O)[C@@H](N)CCC(=O)O)C(C)C)C(C)C)C(=O)N[C@@H](CCC(=O)O)C(=O)NCC(=O)N[C@@H](CO)C(=O)N[C@@H](CC(C)C)C(=O)N[C@@H](CCC(N)=O)C(=O)O [human C-peptide]
Circulating half-life [6]: approximately 30 min

NCCSSCCN [cystamine]
HGM-induced persistent ROS generation in HRECs [4]: inhibited
HGM-induced persistent TGase activation in HRECs (TGase): inhibited

Reference: PMC9926630, “Simultaneous attenuation of hyperglycemic memory-induced retinal, pulmonary, and glomerular dysfunctions by proinsulin C-peptide in diabetes” (BMC Medicine, 2023)
